Patent US4731451A, “N-((2-oxo-3(2H)benzothiazolyl)methyl)-2-chloroacetanilides” (Monsanto Company, priority 1980, dated 1988)

Legend:
Format in all cases: in vivo
major Asian rice weeds = test: Selective control of weeds in transplanted rice (summary of Table VI)
Source text: (§1) In Table VI, data is presented showing the effect of said compound on the major Asian rice weeds Echinochloa crusgalli (EC), Monochoria vaginalis (MV), Cyperus serotinus (CS), Eleocharis kuroguwai (EK) and Sagittaria trifolia (ST) in transplanted rice at rates within the range of 0.25-2.0 lb/A (0.28-2.24 kg/ha); observations were made 18 days after treatment.

Cyperus serotinus = test: Percent inhibition of rice weeds in transplanted rice (Table VI); details: 432 h, 18 days after treatment
Source text: as §1

Eleocharis kuroguwai = test: as above; details: 432 h, 18 days after treatment
Source text: as §1

Lambsquarters = test: Pre-emergent herbicidal activity (Table II); details: 2-3 weeks; further: ranges in brackets are in %
Method in brief: (§2)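 Pre-emergence soil incorporation: compound (solvent or wettable powder suspension) mixed into cover soil over seeds/propagules; greenhouse, subirrigation; percent injury scored on fixed scale at ~2-3 wk after seeding.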

Downy Brome = test: Pre-emergent herbicidal activity (Table II); details: 2-3 weeks; further: ranges in brackets are in %
Method in brief: as §2

Johnsongrass = test: Pre-emergent herbicidal activity (Table II); details: 2-3 weeks; further: ranges in brackets are in %
Method in brief: as §2

Cocklebur = test: Pre-emergent herbicidal activity (Table II); details: 2-3 weeks; further: ranges in brackets are in %
Method in brief: as §2

Velvetleaf = test: Pre-emergent herbicidal activity (Table II); details: 2-3 weeks; further: ranges in brackets are in %
Method in brief: as §2

Yellow Nutsedge = test: Pre-emergent herbicidal activity (Table II); details: 2-3 weeks; further: ranges in brackets are in %
Method in brief: as §2

Quackgrass = test: Pre-emergent herbicidal activity (Table II); details: 2-3 weeks; further: ranges in brackets are in %
Method in brief: as §2

Barnyardgrass = test: Pre-emergent herbicidal activity (Table II); details: 2-3 weeks; further: ranges in brackets are in %
Method in brief: as §2

Morningglory = test: Pre-emergent herbicidal activity (Table II); details: 2-3 weeks; further: ranges in brackets are in %
Method in brief: as §2

Canada Thistle = test: Pre-emergent herbicidal activity (Table II); details: 2-3 weeks; further: ranges in brackets are in %
Method in brief: as §2

Smartweed = test: Pre-emergent herbicidal activity (Table II); details: 2-3 weeks; further: ranges in brackets are in %
Method in brief: as §2

**Q.** What does the source list for CC1=C(N(Cn2c(=O)sc3ccccc32)C(=O)CCl)C(C)CCC1 (centres unmarked) [Example 1, N-(2,6-dimethyl-1-cyclohexen-1-yl)-N-[(2-oxo-3(2H)-benzothiazolyl)methyl]-2-chloroacetamide]?
**A.** efficacy as a rice herbicide (major Asian rice weeds): particularly efficacious as a rice herbicide; selective weed control (major Asian rice weeds; rates as low as 0.28 kg/ha): selectively controlled all weeds in the test, except Sagittaria trifolia; inhibition at 280 g/ha (Cyperus serotinus; 0.28 kg/ha): 80%; inhibition at 560 g/ha (Cyperus serotinus; 0.56 kg/ha): 90%; inhibition at 1120 g/ha (Cyperus serotinus; 1.12 kg/ha): 100%; inhibition at 2240 g/ha (Cyperus serotinus; 2.24 kg/ha): 100%; inhibition at 280 g/ha (Eleocharis kuroguwai; 0.28 kg/ha): 100%; inhibition at 560 g/ha (Eleocharis kuroguwai; 0.56 kg/ha): 100%; inhibition at 1120 g/ha (Eleocharis kuroguwai; 1.12 kg/ha): 100%; inhibition at 2240 g/ha (Eleocharis kuroguwai; 2.24 kg/ha): 100%; Herbicidal rating (Lambsquarters; 5.6 kg/ha): 1 (25-49); Herbicidal rating (Lambsquarters; 11.0 kg/ha): 0 (0-24); Herbicidal rating (Downy Brome; 5.6 kg/ha): 2 (50-74); Herbicidal rating (Downy Brome; 11.0 kg/ha): 2 (50-74); Herbicidal rating (Johnsongrass; 5.6 kg/ha): 0 (0-24); Herbicidal rating (Johnsongrass; 11.0 kg/ha): 3 (75-100); Herbicidal rating (Cocklebur; 5.6 kg/ha): 1 (25-49); Herbicidal rating (Cocklebur; 11.0 kg/ha): 0 (0-24); Herbicidal rating (Velvetleaf; 5.6 kg/ha): 0 (0-24); Herbicidal rating (Velvetleaf; 11.0 kg/ha): 0 (0-24); Herbicidal rating (Yellow Nutsedge; 5.6 kg/ha): 0 (0-24); Herbicidal rating (Yellow Nutsedge; 11.0 kg/ha): 2 (50-74); Herbicidal rating (Quackgrass; 5.6 kg/ha): 2 (50-74); Herbicidal rating (Quackgrass; 11.0 kg/ha): 2 (50-74); Herbicidal rating (Barnyardgrass; 5.6 kg/ha): 3 (75-100); Herbicidal rating (Barnyardgrass; 11.0 kg/ha): 3 (75-100); Herbicidal rating (Morningglory; 5.6 kg/ha): 2 (50-74); Herbicidal rating (Morningglory; 11.0 kg/ha): 2 (50-74); Herbicidal rating (Canada Thistle; 5.6 kg/ha): 0 (0-24); Herbicidal rating (Canada Thistle; 11.0 kg/ha): 0 (0-24); Herbicidal rating (Smartweed; 5.6 kg/ha): 1 (25-49); Herbicidal rating (Smartweed; 11.0 kg/ha): 3 (75-100)
